Measurements reported in PMC11324517 (Nature, 2024).
Residue numbers refer to the chain shown, from its start. “And” between values parts separate entries of the source, which are not always exact repeats. Equal entries are not always repeated. “Also recorded” adds a separate entry of the source. Where two headings read alike, the source gives them in different places.

Key:
∆-hDAT = ∆-hDAT (Homo sapiens, UniProt Q01959, I248Y); conditions: 10 µM MRS7292, [3H]DA 0.185 uM, background not subtracted
Sequence of ∆-hDAT (Q01959 57-620 I248Y limits assumed): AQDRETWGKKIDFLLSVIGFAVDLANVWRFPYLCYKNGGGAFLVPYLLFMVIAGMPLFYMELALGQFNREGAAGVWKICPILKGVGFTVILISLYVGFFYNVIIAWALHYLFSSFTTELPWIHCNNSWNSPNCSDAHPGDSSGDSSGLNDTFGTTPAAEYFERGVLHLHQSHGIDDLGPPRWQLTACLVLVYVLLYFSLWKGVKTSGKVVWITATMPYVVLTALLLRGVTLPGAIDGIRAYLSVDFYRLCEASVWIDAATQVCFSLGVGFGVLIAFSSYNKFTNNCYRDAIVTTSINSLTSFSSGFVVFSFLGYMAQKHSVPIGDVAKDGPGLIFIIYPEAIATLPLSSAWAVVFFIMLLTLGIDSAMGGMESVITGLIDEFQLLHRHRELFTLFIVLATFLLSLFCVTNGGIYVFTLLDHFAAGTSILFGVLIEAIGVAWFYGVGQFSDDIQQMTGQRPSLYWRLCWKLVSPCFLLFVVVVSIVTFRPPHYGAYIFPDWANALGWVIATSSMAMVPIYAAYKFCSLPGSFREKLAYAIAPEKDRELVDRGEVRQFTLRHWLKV
Procedure: (§1) HEK293 GnTI^− cells were transduced with Δ-hDAT and full-length hDAT P2 viruses, propagated in SF9 cells using standard methods as described in ‘Protein expression and purification’, at a cell density of 2.5 – 3.0 × 10^6 cells per ml, followed by incubation at 37 °C for 6 h. After 6 h, sodium butyrate was added to a final concentration of 10 mM, and the cells were transferred to 30 °C with 8% CO2 for 6 h. The transduced cells were seeded into 96-well poly-D-lysine coated Isoplates (Perkin Elmer) at a density of 100,000 cells per well. The plates were then incubated at 30 °C for 12–16 h before the uptake assay was initiated. The cells were initially washed with 37 °C uptake assay buffer composed of 25 mM HEPES pH 7.4, 120 mM NaCl, 5 mM KCl, 1.2 mM CaCl2, 1.2 mM MgSO4, 5 mM D-glucose, 1 mM ascorbic acid, and 1 µM Ro 41-0960, followed by incubation in 50 µl of the same buffer for 10 min. Replicates with 10 µM of GBR12909 in the uptake assay buffer were used to measure background. […] The uptake reaction was stopped by adding 100 µl of chilled inhibition buffer, uptake assay buffer supplemented with 2.5 µM GBR12909. Two consecutive washes with 100 µl of inhibition buffer were carried out, followed by resuspension of cells in 100 µl of 1% Triton X-100. Finally, 100 µl of liquid scintillation cocktail was added to each well and [^3H] counts were measured using a MicroBeta2 (Perkin Elmer). Background counts from three replicates were averaged and subtracted from total counts.

full-length hDAT = full-length hDAT (Homo sapiens, UniProt Q01959); conditions: background not subtracted
Sequence of full-length hDAT (Q01959 whole entry): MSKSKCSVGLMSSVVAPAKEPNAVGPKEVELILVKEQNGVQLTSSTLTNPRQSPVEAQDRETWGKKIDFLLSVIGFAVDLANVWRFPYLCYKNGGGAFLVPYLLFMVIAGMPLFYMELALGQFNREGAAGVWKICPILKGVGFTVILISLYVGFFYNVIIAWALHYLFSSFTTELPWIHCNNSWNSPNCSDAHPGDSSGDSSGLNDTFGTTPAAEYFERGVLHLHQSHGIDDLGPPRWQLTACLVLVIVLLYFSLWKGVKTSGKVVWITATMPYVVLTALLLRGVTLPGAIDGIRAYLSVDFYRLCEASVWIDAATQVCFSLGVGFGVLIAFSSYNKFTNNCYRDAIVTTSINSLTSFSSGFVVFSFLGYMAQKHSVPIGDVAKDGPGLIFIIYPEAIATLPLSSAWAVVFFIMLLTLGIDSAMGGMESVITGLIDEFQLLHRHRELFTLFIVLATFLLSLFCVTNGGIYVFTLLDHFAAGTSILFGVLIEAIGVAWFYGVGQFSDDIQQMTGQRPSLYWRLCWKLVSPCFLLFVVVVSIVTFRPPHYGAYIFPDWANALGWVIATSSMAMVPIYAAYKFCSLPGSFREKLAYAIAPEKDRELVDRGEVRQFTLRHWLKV
Procedure: as §1

∆-hDAT W84A = target: T1, ∆-hDAT W84A (Homo sapiens, UniProt Q01959, I248Y/W84A); conditions: for W84A total (raw [3H]dopamine uptake counts): Extended Data Fig 7c source data, replicates 1-3
T1 sequence (Q01959 57-620 W84A/I248Y limits assumed): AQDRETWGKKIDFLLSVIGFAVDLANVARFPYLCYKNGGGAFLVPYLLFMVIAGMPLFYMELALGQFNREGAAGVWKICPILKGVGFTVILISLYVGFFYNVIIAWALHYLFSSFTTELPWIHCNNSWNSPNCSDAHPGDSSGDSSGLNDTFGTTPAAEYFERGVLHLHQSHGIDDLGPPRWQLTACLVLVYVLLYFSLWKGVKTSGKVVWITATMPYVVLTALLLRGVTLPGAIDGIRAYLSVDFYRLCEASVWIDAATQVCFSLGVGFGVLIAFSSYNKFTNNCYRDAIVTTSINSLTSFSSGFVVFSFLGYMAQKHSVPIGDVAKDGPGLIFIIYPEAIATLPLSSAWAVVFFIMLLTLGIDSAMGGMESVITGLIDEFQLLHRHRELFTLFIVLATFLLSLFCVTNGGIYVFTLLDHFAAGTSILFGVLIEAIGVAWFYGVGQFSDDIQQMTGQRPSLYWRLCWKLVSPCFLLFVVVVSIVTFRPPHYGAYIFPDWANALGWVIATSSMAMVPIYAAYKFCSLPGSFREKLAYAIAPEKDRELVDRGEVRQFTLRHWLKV
Procedure: (§2) Replicates containing 10 µM of GBR12909 were used to measure background. […] Uptake was quenched by adding 50 µl of ice-cold inhibition buffer.
(§3) Specific counts were obtained by subtracting background counts (averaged from technical triplicates) from total counts. […] Data were collected from three independent experiments (n = 3 biological replicates starting from transduction), each performed with three technical replicates.

∆-hDAT W84C = target: T2, ∆-hDAT W84C (Homo sapiens, UniProt Q01959, I248Y/W84C); conditions: for W84C total (raw [3H]dopamine uptake counts): Extended Data Fig 7c source data, replicates 1-3
T2 sequence (Q01959 57-620 W84C/I248Y limits assumed): T1 sequence (Q01959 57-620 W84A/I248Y limits assumed) with A28C
Procedure: as §2, §3

∆-hDAT D385A = ∆-hDAT D385A (Homo sapiens, UniProt Q01959, D385A/I248Y); conditions: MRS7292 30 µM; [3H]dopamine uptake, Figure 2d raw data
Sequence of ∆-hDAT D385A (Q01959 57-620 I248Y/D385A limits assumed): as the sequence (Q01959 57-620 I248Y limits assumed) above, with D329A counted along it
Procedure: as §2, §3

∆-hDAT D385N = ∆-hDAT D385N (Homo sapiens, UniProt Q01959, D385N/I248Y); conditions: D385N versus ∆-hDAT
Sequence of ∆-hDAT D385N (Q01959 57-620 I248Y/D385N limits assumed): as the sequence (Q01959 57-620 I248Y limits assumed) above, with D329N counted along it
Procedure: as §2, §3

∆-hDAT V364I = ∆-hDAT V364I (Homo sapiens, UniProt Q01959, I248Y/V364I); conditions: [3H]dopamine uptake, Figure 2d raw data
Sequence of ∆-hDAT V364I (Q01959 57-620 I248Y/V364I limits assumed): as the sequence (Q01959 57-620 I248Y limits assumed) above, with V308I counted along it
Procedure: as §2, §3

∆-hDAT Y394F = ∆-hDAT Y394F (Homo sapiens, UniProt Q01959, I248Y/Y394F); conditions: for Y394F total (raw [3H]dopamine uptake counts): Extended Data Fig 7c source data, replicates 1-3
Sequence of ∆-hDAT Y394F (Q01959 57-620 I248Y/Y394F limits assumed): as the sequence (Q01959 57-620 I248Y limits assumed) above, with Y338F counted along it
Procedure: as §2, §3

∆-hDAT I390L = ∆-hDAT I390L (Homo sapiens, UniProt Q01959, I248Y/I390L); conditions: [3H]dopamine uptake
Sequence of ∆-hDAT I390L (Q01959 57-620 I248Y/I390L limits assumed): as the sequence (Q01959 57-620 I248Y limits assumed) above, with I334L counted along it
Procedure: as §2, §3

∆-hDAT V364I/I390L = ∆-hDAT V364I/I390L (Homo sapiens, UniProt Q01959, I248Y/I390L/V364I); conditions: MRS7292 10 µM; [3H]dopamine uptake, Figure 2d raw data
Sequence of ∆-hDAT V364I/I390L (Q01959 57-620 I248Y/V364I/I390L limits assumed): as the sequence (Q01959 57-620 I248Y limits assumed) above, with V308I, I334L counted along it
Procedure: as §2, §3

CNc1nc(C#Cc2ccc(Cl)s2)nc2c1ncn2[C@H]1[C@H](O)[C@H](O)[C@]2(C(=O)OC)C[C@H]12 [MRS7292]
[3H]DA Uptake - Δ-hDAT, total counts - 10 µM MRS7292 (∆-hDAT): 20 cpm and 17 cpm and 15 cpm and 19 cpm and 12 cpm and 22 cpm
[3H]DA Uptake - Full length hDAT, total counts - 10 µM MRS7292 (full-length hDAT; 10 µM MRS7292, [3H]DA 0.0068 uM): 10 cpm and 11 cpm and 8 cpm and 14 cpm and 9 cpm and 16 cpm
[3H]DA Uptake - Full length hDAT, total counts - 10 µM MRS7292 (full-length hDAT; 10 µM MRS7292, [3H]DA 0.061 uM): 13 cpm and 18 cpm and 14 cpm and 10 cpm and 16 cpm and 15 cpm and 19 cpm and 17 cpm
[3H]DA Uptake - Full length hDAT, total counts - 10 µM MRS7292 (full-length hDAT; 10 µM MRS7292, [3H]DA 0.185 uM): 25 cpm and 15 cpm and 20 cpm and 27 cpm and 21 cpm and 23 cpm and 22 cpm
[3H]DA Uptake - Full length hDAT, total counts - 10 µM MRS7292 (full-length hDAT; 10 µM MRS7292, [3H]DA 1.66 uM): 65 cpm and 83 cpm and 90 cpm and 75 cpm and 88 cpm and 55 cpm and 51 cpm and 66 cpm
W84A total (raw [3H]dopamine uptake counts) (∆-hDAT W84A; MRS7292 1e-6 µM): 4895 and 4792 and 4802 and 4600 and 4953 and 4373 and 5070 and 4982 and 5054
W84A total (raw [3H]dopamine uptake counts) (∆-hDAT W84A; MRS7292 0.041 µM): 4749 and 4230 and 4559 and 4747 and 4675 and 5103 and 5266 and 5201 and 5101
W84A total (raw [3H]dopamine uptake counts) (∆-hDAT W84A; MRS7292 0.123 µM): 4930 and 5121 and 4987 and 4751 and 4624 and 4813 and 5010 and 4838 and 4937
W84A total (raw [3H]dopamine uptake counts) (∆-hDAT W84A; MRS7292 0.37 µM): 4894 and 4668 and 4952 and 4517 and 4587 and 4491 and 5700 and 5202 and 4820
W84A total (raw [3H]dopamine uptake counts) (∆-hDAT W84A; MRS7292 1.11 µM): 4984 and 5198 and 4980 and 4949 and 4430 and 4563 and 5130 and 4679 and 4795
W84A total (raw [3H]dopamine uptake counts) (∆-hDAT W84A; MRS7292 3.33 µM): 4301 and 4523 and 4569 and 4697 and 4581 and 4993 and 4757 and 5251 and 4774
W84A total (raw [3H]dopamine uptake counts) (∆-hDAT W84A; MRS7292 10 µM): 4768 and 4277 and 4629 and 4852 and 4916 and 4947 and 5164 and 4713 and 5124
W84A total (raw [3H]dopamine uptake counts) (∆-hDAT W84A; MRS7292 30 µM): 3395 and 3824 and 4400 and 4392 and 4159 and 3949 and 4924 and 4868 and 4552
effect of mutation on potency of MRS7292 (inhibition of dopamine uptake) (∆-hDAT W84A; W84A versus ∆-hDAT): severely compromises the potency; also recorded: severe loss of MRS7292 activity
W84C total (raw [3H]dopamine uptake counts) (∆-hDAT W84C; MRS7292 1e-6 µM): 4594 and 4467 and 4710 and 3850 and 4193 and 4029 and 4760 and 5939 and 5408
W84C total (raw [3H]dopamine uptake counts) (∆-hDAT W84C; MRS7292 0.041 µM): 5542 and 4901 and 4879 and 3714 and 3791 and 3749 and 5161 and 5312 and 5150
W84C total (raw [3H]dopamine uptake counts) (∆-hDAT W84C; MRS7292 0.123 µM): 5015 and 4917 and 5068 and 3749 and 3676 and 3489 and 6082 and 6141 and 5806
W84C total (raw [3H]dopamine uptake counts) (∆-hDAT W84C; MRS7292 0.37 µM): 4864 and 5475 and 5004 and 3395 and 4058 and 4217 and 6996 and 6040 and 6103
W84C total (raw [3H]dopamine uptake counts) (∆-hDAT W84C; MRS7292 1.11 µM): 4560 and 4192 and 4804 and 2868 and 3597 and 3884 and 6157 and 6005
W84C total (raw [3H]dopamine uptake counts) (∆-hDAT W84C; MRS7292 3.33 µM): 5290 and 5001 and 5041 and 3941 and 4001 and 3991 and 5807 and 6342 and 6018
W84C total (raw [3H]dopamine uptake counts) (∆-hDAT W84C; MRS7292 10 µM): 5439 and 5725 and 4868 and 3830 and 4200 and 4303 and 5849 and 6416 and 6207
W84C total (raw [3H]dopamine uptake counts) (∆-hDAT W84C; MRS7292 30 µM): 4716 and 4588 and 4467 and 3448 and 3565 and 3579 and 4954 and 3057 and 4610
effect of mutation on potency of MRS7292 (inhibition of dopamine uptake) (∆-hDAT W84C; W84C versus ∆-hDAT): severely compromises the potency; also recorded: severe loss of MRS7292 activity
D385A total (∆-hDAT D385A): 286 and 316 and 337 and 362 and 408 and 403 and 257 and 320
effect of mutation on potency of MRS7292 (inhibition of dopamine uptake) (∆-hDAT D385N): retained potency; also recorded: potency of MRS7292 was maintained; also recorded: little effect
V364I total (∆-hDAT V364I; MRS7292 1e-6 µM): 5751 and 5593 and 5760 and 5223 and 5698 and 5483 and 5457 and 5433
V364I total (∆-hDAT V364I; MRS7292 10 µM): 65 and 56 and 61 and 57 and 59 and 73 and 84 and 89
V364I total (∆-hDAT V364I; MRS7292 30 µM): 24 and 25 and 29 and 37 and 23 and 36 and 26
Y394F total (raw [3H]dopamine uptake counts) (∆-hDAT Y394F; MRS7292 1e-6 µM): 1962 and 2141 and 2109 and 2218 and 1876 and 2149 and 2315 and 2380 and 2515
Y394F total (raw [3H]dopamine uptake counts) (∆-hDAT Y394F; MRS7292 0.041 µM): 2021 and 1947 and 2451 and 1672 and 1475 and 1990 and 5167 and 4746
Y394F total (raw [3H]dopamine uptake counts) (∆-hDAT Y394F; MRS7292 0.123 µM): 2135 and 2187 and 2249 and 1538 and 1496 and 1463 and 3048 and 2825 and 2648
Y394F total (raw [3H]dopamine uptake counts) (∆-hDAT Y394F; MRS7292 0.37 µM): 2258 and 2255 and 2215 and 1771 and 1434 and 1467 and 2327 and 2753 and 2672
Y394F total (raw [3H]dopamine uptake counts) (∆-hDAT Y394F; MRS7292 1.11 µM): 1683 and 2000 and 1961 and 1802 and 1518 and 1933 and 2789 and 2557 and 2651
Y394F total (raw [3H]dopamine uptake counts) (∆-hDAT Y394F; MRS7292 3.33 µM): 2058 and 2080 and 2545 and 1969 and 2086 and 2231 and 2762 and 2184 and 1914
Y394F total (raw [3H]dopamine uptake counts) (∆-hDAT Y394F; MRS7292 10 µM): 2191 and 2728 and 2379 and 1871 and 1698 and 1883 and 2721 and 2825 and 2576
Y394F total (raw [3H]dopamine uptake counts) (∆-hDAT Y394F; MRS7292 30 µM): 1926 and 2280 and 2146 and 1689 and 1287 and 1345 and 2421 and 2231 and 2505
effect of mutation on potency of MRS7292 (inhibition of dopamine uptake) (∆-hDAT Y394F; Y394F versus ∆-hDAT): diminishes the potency; also recorded: severe loss of MRS7292 activity
change in IC50 of MRS7292 versus ∆-hDAT (∆-hDAT I390L; I390L mutant): modest increase in the IC50 value; also recorded: increased IC50
I390L total counts (∆-hDAT I390L; MRS7292 30 µM, Figure 2d raw data): 109 counts and 108 counts and 83 counts and 89 counts and 68 counts and 75 counts and 87 counts and 88 counts
I390L-V364I total (∆-hDAT V364I/I390L): 85 and 69 and 75 and 62 and 48 and 60 and 76 and 66
